US11051515B2, “3-acyl-benzamides and their use as herbicides” (Bayer Aktiengesellschaft, priority 2017, dated 2021)

Tests used:
[1] = tested on: VERPE; assay: Pre-emergence action against VERPE; assay type: in vivo, Veronica persica; conditions: Dosage 320 g/ha, pre-emergence
Procedure, shortened: (§1)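 Seeds sown in sandy loam in wood-fiber pots and covered with soil. Greenhouse growth; visual damage scored after 3 weeks versus untreated controls (100% = dead, 0% = like control).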

[2] = tested on: STEME; assay: Post-emergence action against STEME; assay type: in vivo, Stellaria media; conditions: post-emergence, dosage 80 g/ha
Procedure, shortened: (§2)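 Post-emergence foliar spray on greenhouse plants at the one-leaf stage, using wettable-powder or emulsion-concentrate formulations in water (600 to […], plus 0.2% wetting agent). Damage scored by eye roughly 3 weeks later against untreated plants: 0% = like control, 100% = dead.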

[3] = tested on: POLCO; assay: Pre-emergence action against POLCO; assay type: in vivo, Polygonum convolvulus; conditions: Dosage 320 g/ha, pre-emergence
Procedure, shortened: as §1

[4] = tested on: ECHCG; assay: Post-emergence action against ECHCG; assay type: in vivo, Echinochloa crus-galli; conditions: post-emergence, dosage 80 g/ha, visual assessment about 3 weeks after treatment vs untreated controls
Procedure, shortened: as §2

[5] = tested on: SETVI; assay: Post-emergence action against SETVI; assay type: in vivo, Setaria viridis; conditions: post-emergence, dosage 80 g/ha, visual assessment about 3 weeks after treatment vs untreated controls
Procedure, shortened: as §2

[6] = tested on: STEME; assay: Pre-emergence action against STEME; assay type: in vivo, Stellaria media; conditions: Dosage 320 g/ha, pre-emergence
Procedure, shortened: as §1

[7] = tested on: MATIN; assay: Post-emergence action against MATIN; assay type: in vivo, Matricaria inodora; conditions: post-emergence, dosage 80 g/ha, visual assessment about 3 weeks after treatment vs untreated controls
Procedure, shortened: as §2

[8] = tested on: PHBPU; assay: Pre-emergence action against PHBPU; assay type: in vivo, Pharbitis purpurea; conditions: Dosage 320 g/ha, pre-emergence
Procedure, shortened: as §1

[9] = tested on: AVEFA; assay: Pre-emergence action against AVEFA; assay type: in vivo, Avena fatua; conditions: dosage 320 g/ha, scored visually after 3 weeks vs untreated controls
Procedure, shortened: as §1

[10] = tested on: VIOTR; assay: Post-emergence action against VIOTR; assay type: in vivo, Viola tricolor; conditions: post-emergence, dosage 80 g/ha
Procedure, shortened: as §2

[11] = tested on: AMARE; assay: Pre-emergence action against AMARE; assay type: in vivo, Amaranthus retroflexus; conditions: pre-emergence, dosage 320 g/ha, scored visually after 3 weeks vs untreated controls
Procedure, shortened: as §1

[12] = tested on: ALOMY; assay: Post-emergence action against ALOMY; assay type: in vivo, Alopecurus myosuroides; conditions: Dosage 80 g/ha, post-emergence
Procedure: Seeds of monocotyledonous and dicotyledonous weed and crop plants are laid out in sandy loam soil in wood-fiber pots, covered with soil and cultivated in a greenhouse under good growth conditions. 2 to 3 weeks after sowing, the test plants are treated at the one-leaf stage. The compounds of the invention, formulated in the form of wettable powders (WP) or as emulsion concentrates (EC), are then sprayed onto the green parts of the plants in the form of an aqueous suspension or emulsion at a water application rate equating to […], with addition of 0.2% wetting agent. After the test plants have been left to stand in the greenhouse under optimal growth conditions for about 3 weeks, the action of the preparations is assessed visually in comparison to untreated controls (herbicidal action in percent (%): 100% activity=the plants have died, 0% activity=like control plants). […] At the same time, inventive compounds leave Gramineae crops such as barley, wheat, rye, millet/Sorghum, corn or rice virtually undamaged when applied post-emergence, even at high active ingredient dosages. In addition, some substances are also harmless to dicotyledonous crops such as soya, cotton, oilseed rape, sugar beet or potatoes. Some of the compounds according to the invention have high selectivity and are therefore suitable for controlling unwanted vegetation in agricultural crops by the post-emergence method. The data of Tables B18 to B34 below illustrate, in an exemplary manner, the […] herbicidal action of the compounds according to the invention, the herbicidal activity being stated in percent.

[13] = tested on: AVEFA; assay: Post-emergence action against AVEFA; assay type: in vivo, Avena fatua; conditions: post-emergence, dosage 80 g/ha, visual assessment about 3 weeks after treatment vs untreated controls
Procedure, shortened: as §2

[14] = tested on: VIOTR; assay: Pre-emergence action against VIOTR; assay type: in vivo, Viola tricolor; conditions: Dosage 320 g/ha, pre-emergence
Procedure, shortened: as §1

[15] = tested on: CYPES; assay: Post-emergence action against CYPES; assay type: in vivo, Cyperus esculentus; conditions: post-emergence, dosage 80 g/ha, visual assessment about 3 weeks after treatment vs untreated controls
Procedure, shortened: as §2

[16] = tested on: PHBPU; assay: Post-emergence action against PHBPU; assay type: in vivo, Pharbitis purpurea; conditions: post-emergence, dosage 80 g/ha
Procedure, shortened: as §2

[17] = tested on: CYPES; assay: Pre-emergence action against CYPES; assay type: in vivo, Cyperus esculentus; conditions: pre-emergence, dosage 320 g/ha, scored visually after 3 weeks vs untreated controls
Procedure, shortened: as §1

[18] = tested on: ABUTH; assay: Pre-emergence action against ABUTH; assay type: in vivo, Abutilon theophrasti; conditions: pre-emergence, dosage 320 g/ha, scored visually after 3 weeks vs untreated controls
Procedure, shortened: as §1

[19] = tested on: ALOMY; assay: Pre-emergence action against ALOMY; assay type: in vivo, Alopecurus myosuroides; conditions: dosage 320 g/ha; pre-emergence; scored visually after 3 weeks vs untreated controls; 100% = plants have died, 0% = like control plants
Procedure, shortened: as §1

[20] = tested on: ABUTH; assay: Post-emergence action against ABUTH; assay type: in vivo, Abutilon theophrasti; conditions: post-emergence, dosage 80 g/ha, visual assessment about 3 weeks after treatment vs untreated controls
Procedure, shortened: as §2

[21] = tested on: AMARE; assay: Post-emergence action against AMARE; assay type: in vivo, Amaranthus retroflexus; conditions: post-emergence, dosage 80 g/ha, visual assessment about 3 weeks after treatment vs untreated controls
Procedure, shortened: as §2

[22] = tested on: VERPE; assay: Post-emergence action against VERPE; assay type: in vivo, Veronica persica; conditions: dosage 80 g/ha
Procedure, shortened: as §2

[23] = tested on: ECHCG; assay: Pre-emergence action against ECHCG; assay type: in vivo, Echinochloa crus-galli; conditions: pre-emergence, dosage 320 g/ha, scored visually after 3 weeks vs untreated controls
Procedure, shortened: as §1

[24] = tested on: MATIN; assay: Pre-emergence action against MATIN; assay type: in vivo, Matricaria inodora; conditions: Dosage 320 g/ha, pre-emergence
Procedure, shortened: as §1

[25] = tested on: SETVI; assay: Pre-emergence action against SETVI; assay type: in vivo, Setaria viridis; conditions: pre-emergence, dosage 320 g/ha, scored visually after 3 weeks vs untreated controls
Procedure, shortened: as §1

SMILES	Pre-emergence action against VERPE [1]	Post-emergence action against STEME [2]	Post-emergence action against ECHCG (herbicidal action in percent) [4]	Post-emergence action against SETVI (herbicidal action in percent) [5]	Pre-emergence action against STEME [6]	Post-emergence action against MATIN (herbicidal action in percent) [7]	Pre-emergence action against AVEFA (herbicidal activity) [9]	Post-emergence action against VIOTR [10]	Pre-emergence action against AMARE (herbicidal activity) [11]	Post-emergence action against ALOMY [12]	Post-emergence action against AVEFA (herbicidal action in percent) [13]	Pre-emergence action against VIOTR [14]	Post-emergence action against CYPES (herbicidal action in percent) [15]	Post-emergence action against PHBPU [16]	Pre-emergence action against ABUTH (herbicidal activity) [18]	Pre-emergence action against ALOMY (herbicidal activity in percent) [19]	Post-emergence action against ABUTH (herbicidal action in percent) [20]	Post-emergence action against AMARE (herbicidal action in percent) [21]	Post-emergence action against VERPE [22]	Pre-emergence action against ECHCG (herbicidal activity) [23]	also measured
CCn1nnnc1NC(=O)c1ccc(SC)c(C(C)=O)c1Cl [2-121]	100%	90	100%	90%	90%	100%	90%	100	100%	80%	80%	100%	80%	90	100%	90%	100%	100%	100	100%	Pre-emergence action against POLCO [3]: 100%; Pre-emergence action against PHBPU [8]: 80%; Pre-emergence action against CYPES (herbicidal activity) [17]: 90%; Pre-emergence action against MATIN [24]: 100%; SETVI (Table B8, pre-emergence herbicidal activity) [25]: 90%
CCCn1nnnc1NC(=O)c1ccc(S(C)(=O)=O)c(C(=O)C2CC2)c1Cl [3-129]	100%	100	100%	100%	100%	100%	100%	100	100%	90%	90%	100%	80%	100	100%	90%	90%	90%	100	100%	Pre-emergence action against PHBPU [8]: 90%; Pre-emergence action against CYPES (herbicidal activity) [17]: 90%; Pre-emergence action against MATIN [24]: 100%; SETVI (Table B8, pre-emergence herbicidal activity) [25]: 100%
CCCn1nnnc1NC(=O)c1ccc(C(F)(F)F)c(C(=O)C2CC2)c1Cl [3-141]	100%	100	100%	100%	100%	100%	80%	100	100%	80%	100%	100%	80%	100	100%	90%	80%	100%	100	100%	Pre-emergence action against POLCO [3]: 90%; Pre-emergence action against MATIN [24]: 100%; SETVI (Table B8, pre-emergence herbicidal activity) [25]: 100%
